Laboratory results: patent US12708620B2, “Prodrugs and medical uses thereof” (priority 2018, dated 2026)

Assays:
[1] = tested on: MDA-MB-468 tumor xenograft; assay: breast cancer (TNBC) xenograft model; assay type: in vivo, BALB/c Nude Mice; conditions: MDA-MB-468 xenograft
[2] = tested on: DMS 114 tumor xenograft; assay: lung cancer (SCLC) xenograft model; assay type: in vivo, BALB/c Nude Mice; conditions: DMS 114 xenograft; 600 mg/kg IP; hypoxic status confirmed
Description: All animal models were established as xenograft model in BALB/c Nude Mice (6-8 weeks old, 17-23 grams, maintained in standard conditions and diet), following approved IACUC (Institutional Animal Care and Use Committees) protocols. Cpd.11 Ms was formulated using 2% dimethyl sulfoxide (DMSO in water for injection, starting from a Cpd.11 Ms main preparation (100-60 mg/ml in 2% DMSO in water for injection).
After tumor cell inoculation, the animals were checked daily for morbidity and mortality. Before commencement of treatment all animals were weighed and the tumor volumes were measured using a caliper. The treatments were started when the mean tumor size reached approx. 250 mm^3. […] At the time of routine monitoring, the animals were checked for any effects of tumor growth and treatments on normal behavior such as mobility, visual estimation of food and water consumption, body weight gain/loss (body weights were measured daily during the 5-day treatment and thrice weekly after treatment), eye/hair matting and any other abnormal effect. Death and observed clinical signs were recorded on the basis of the numbers of animals within each subset. […] The surrogate endpoint for survival was calculated and indicated as TVx4 (initial tumor volume times 4). […] All data were analyzed in SPSS (Statistical Product and Service Solutions) version 18.0 (IBM, Armonk, NY, U.S.). […]

## CCN1CCN(C(=O)c2cc(N(CCBr)CCOS(C)(=O)=O)c(S(C)(=O)=O)cc2[N+](=O)[O-])CC1.CS(=O)(=O)O [Cpd.11 Ms, 4-(5-((2-bromoethyl) (2-((methylsulfonyl)oxy)ethyl)amino)-4-(methylsulfonyl)-2-nitrobenzoyl)-1-ethylpiperazin-1-ium methanesulfonate]
[1]; 200-800 mg/kg IP, hypoxic status confirmed
  Anti-tumor effect: Strong impact,
[1]; 400-800 mg/kg from 1 to 5 consecutive days
  impact on hypoxia by pimonidazole immunohistochemical staining: clear impact
[2]
  Anti-tumor effect: Clear impact,
